The values below come from a melting point compilation (Tetko et al.).

Broadly, the melting point is the temperature, or range, at which the solid turns liquid. For `COP(=O)(CN1C(=O)c2ccccc2C1=O)OC`, the melting point was 118 °C.

`CC(C)(C)OC(=O)N[C@@H](CCC(=O)OCc1ccccc1)C(=O)O`: the melting point fell in the range of 65 to 68 °C.

Compound `CC(=O)CS(=O)(=O)c1ccc(Cl)cc1` gave a melting point of 89 to 91 °C. In turn, `Cc1cccc2cc3c(ccc4ccccc43)cc12` came in with a melting point of 156 °C. With `CCOc1nc2ccccc2c(=O)n1Cc1ccccc1`, the melting point was 96 to 97 °C. The value for `CC1C2CCCC(C2=NNC(N)=S)C2(O)CCCCC12` (stereo not given) was 195 °C; that for `O=C(O)c1ccc(-c2ccncc2)cc1` was 300 °C. With `NNC(=O)c1ccsc1`, the melting point lay within 126 to 128 °C.

Compound `CC(=O)c1[nH]c(C)cc1C` gave a melting point of 118 to 121 °C. The value for `O=C1c2ccccc2C(=O)C2CC3=C(CC=CC3)CC12` (stereo not given) was 155 °C.

The compound `O=C(O)C1CC(=O)N(Cc2ccc(F)cc2)C1` (stereo not given) yielded a melting point of 150 to 151 °C. The value for `O=C(CBr)c1ccccc1[N+](=O)[O-]` was 55 °C; that for `Nc1nc(-c2ccc(F)c(F)c2)cs1` was 116 to 117 °C; that for `O=C(O)CCP(=O)(O)O` was 165 to 166 °C. The value for `Cc1ccccc1N=O` was 73.5 °C; that for `N#Cc1ccc(F)c(Br)c1` was 56 °C; that for `CCCCC(C#N)(Cn1cncn1)c1ccc(Cl)cc1` (stereo not given) was 70.9 °C. The value for `Nc1ccncc1C=O` was 110 °C; that for `Cn1nc2ccccc2c1C=O` was 75 to 77 °C. On to `c1ccc(-c2ccc3ncccc3c2)cc1`, for which the melting point turned out to be 110 °C. `CC(=O)c1cc(Br)ccc1O` came in with a melting point of 58 to 61 °C. The value for `CNc1ccccc1` was -57 °C. In the case of `Clc1ccc(-c2cc(Cl)c(Cl)c(Cl)c2Cl)cc1` it was 98 °C. Turning to `Cc1cccc2c1sc1c(C)cccc12`, the melting point was in the range of 147 to 153 °C. In the case of `CC1(C)OC(=O)C2(CC2)C(=O)O1` it was 65 °C; in that of `C1=CCCCCC1`, -56 °C; in that of `CCOc1ccccc1[N+](=O)[O-]`, 2.2 °C. In the case of `O=C(O)CCCCCCCCCCCCCCO` it was 97 to 99 °C; in that of `COc1ccc(C=CC(=O)c2cccc(C(=O)C=Cc3ccc(OC)c(O)c3)c2)cc1O`, over 200 °C. In the case of `O=S1(=O)CCN(Cc2ccccc2)CC1` it was 85 to 86 °C; in that of `N#Cc1ccccc1-n1cccc1`, 51 °C; in that of `O=[N+]([O-])c1cccnc1Oc1ccc(F)cc1`, 98 to 99 °C. `COc1ccccc1C(=O)Oc1ccc(C(=O)/C=C/c2ccc(N(C)C)cc2)cc1` showed a melting point of 99 °C.

`O=[N+]([O-])c1ccc(SCl)c([N+](=O)[O-])c1` yielded a melting point of 99 °C. The value for `N#C/C(=C\c1cccc(O)c1)c1nc2ccccc2[nH]1` was 299 to 300 °C. In the case of `CCCCCCCCOc1ccc(NC(=O)c2ccc(CC)cc2)cc1` it was 143 °C; in that of `CN1CCN(C2=Nc3ccccc3Oc3ccc(Cl)cc32)CC1`, 110 °C; in that of `CCOC(=O)C1=C(C)OC(N)=C(C#N)C1c1ccccc1` (stereo not given), 189 to 190 °C. Turning to `OCC(F)(F)C(F)(F)C(F)(F)C(F)(F)C(F)(F)C(F)(F)C(F)(F)C(F)(F)CO`, the melting point lay within 132 to 137 °C. In the case of `Cc1ccc(NC(=O)CC2C(=O)C3(C)CCC2C3(C)C)cc1` (stereo not given) it was 158 °C; in that of `CN(C)c1ccc(C=CC(=O)c2ccccc2)cc1`, 114 °C; in that of `CN(C1=NC(=Cc2ccccc2)C(=O)N1c1ccccc1)c1ccccc1`, 207 °C. For `Cc1ccc([N+](=O)[O-])cc1N=C=O`, the melting point stood at 51 °C.

`CCOC(=O)c1cc(C(=O)OCC)cc(C(=O)OCC)c1` gave a melting point of 134 °C. In the case of `O=C1c2ccccc2-c2ccc([N+](=O)[O-])cc21` it was 222 to 223 °C; in that of `COC(=O)[C@H](CSCc1ccccc1)NC(C)=O`, 67 to 73 °C. As to `O=C(O)c1ccc(CSc2ccc(C(F)(F)F)cn2)o1`, the melting point was 176 to 178 °C. `Cc1cccc(NN=C2C(=O)N(C)C(=O)N(C)C2=O)c1` displayed a melting point of 228 °C.

With `CCOC(=O)c1csc(-c2cccc(Cl)c2Cl)n1`, the melting point was 108 to 110 °C.

The compound `COC(=O)CCC(C)C1CCC2C3C(=O)CC4CCCCC4(C)C3CC(=O)C12C` (stereo not given) came in with a melting point of 140 °C. Regarding `CC(C)C(CO)CCC(C)(O)C(O)C(C)C` (stereo not given), the melting point was found to be 60 °C. For `Fc1cc(F)c(Br)c(Br)c1`, the melting point was determined as 37 °C. As for `Cc1ccc(S(=O)(=O)CC(=O)O)cc1`, the melting point worked out at 118 °C. The value for `O=C(Nc1ccccc1)OCc1c([N+](=O)[O-])cccc1[N+](=O)[O-]` was 138 °C.

Compound `FC(F)(F)c1cc(Cl)c2cc(CBr)ccc2n1` showed a melting point of 119 to 123 °C. In the case of `CC(C)(C)C(O)C(Cc1ccc(Cl)cc1Cl)n1cncn1` (stereo not given) it was 148 °C.

In the case of `Clc1ccc(Cc2c(N=Cc3ccccc3Cl)n[nH]c2N=Cc2ccccc2Cl)cc1`, the melting point was 199 to 201 °C.

As to `c1cc2c3c(cccc3c1)CNC2`, the melting point was 99 °C.

Take `Nc1ccc(C(F)(F)F)cc1I`: the melting point is 51 °C. The value for `c1cc(NNc2cccc(-n3cccn3)c2)cc(-n2cccn2)c1` was 169 to 171 °C; that for `CC(CC(=O)O)C(=O)O` (stereo not given) was 118 °C; that for `CN(C(=O)CCl)c1c2c(nn1C)CCCC2` was 84 to 86 °C.

`NC(=O)NC(=O)Cc1ccccc1` returned a melting point of 215 °C. In the case of `CCOCCOCCOC(C)=O` it was -25 °C.

`COC(=O)C1C(O)CCC2CN3CCc4c([nH]c5ccccc45)C3CC21` (stereo not given) registered a melting point of 234 °C. Compound `CC(C)(C)OC(=O)NN1CCCC1C(=O)O` (stereo not given) yielded a melting point of 134 to 137 °C. As for `O=c1c(Cl)c[nH]cc1Cl`, the melting point was 322 °C.

`Cn1c(=O)c(C2=NNC(=O)C2=NNc2ccc([N+](=O)[O-])cc2)c(O)c2ccccc21` registered a melting point of 300 °C. The value for `Nc1ccc(CN2CCCC2)cc1` was 46 to 48 °C.

As for `COc1cccc(C=C(C(=O)O)C(=Cc2cccc(OC)c2)C(=O)O)c1`, the melting point is 182 °C. `NC(=O)C(=O)NC(c1ccccc1)C1(c2ccccc2)OCCO1` (stereo not given) yielded a melting point of 203 °C. The compound `CN(C)c1ccc(C=C(C#N)c2ccc(Cl)c(Cl)c2)cc1` registered a melting point of 213 to 214 °C. In the case of `CCOC(=O)c1cc(C)n(Cc2ccccc2)n1` it was 37 °C; in that of `CNC(=O)N(C)c1nc2ccccc2s1`, 120 °C. The value for `Cn1nc(C(=O)Cl)c2ccccc21` was 126 °C; that for `CSc1nc(N)cc(Cl)n1` was 130 to 134 °C. In the case of `CCCCCCCCCCCCCCCCOCCCCCCCCCCCCCCCC` it was 55 °C; in that of `COc1ccc2c(c1O)-c1c3c(cc4c1C(C2)N(C)CC4)OCO3` (stereo not given), 200 °C; in that of `O=C(c1ccccc1)c1cc([N+](=O)[O-])ccc1Cl`, 83 to 86 °C.

In the case of `Cc1[nH]c2ccccc2c1C#N`, the melting point fell in the range of 212 to 213 °C. In the case of `O=C(O)C=Cc1ccc(Sc2ccc(Cl)cc2)c([N+](=O)[O-])c1` it was 233 to 235 °C; in that of `CC(=O)Oc1ccc(C(=C2CCCCC2)c2ccc(OC(C)=O)cc2)cc1`, 136 °C. On to `CC(C)(C)OC(=O)NC1(C(=O)O)CCCC1`, for which the melting point was found to be 133 °C.

In turn, `Cc1cc(Cl)ccc1OCCCC(=O)O` showed a melting point of 100 °C.

`O=Cc1cn(Cc2ccccc2)c2ccccc12` yielded a melting point of 108 to 110 °C. `CCSC(=O)COc1ccc(Cl)cc1C` yielded a melting point of 41.5 °C. In the case of `CN1CCC2=C(C1)C(c1ccccc1)c1ccccc12` (stereo not given) it was 91 °C.

`O=C(Cl)c1ccc2c(c1)OCCCO2` displayed a melting point of 29 to 33 °C. Compound `CCOC(=O)C(C(N)=S)=C1NN=C(c2ccc(Cl)cc2)O1` gave a melting point of 174 to 177 °C. In turn, `CCCCOCC` came in with a melting point of -124 °C. In the case of `CC(=O)c1cc(C(C)=O)c(N)cc1N` it was 235 °C. In the case of `Oc1ccc(Oc2ccc(O)cc2)cc1` it was 163 to 168 °C; in that of `NC(=O)c1cccc(C(F)(F)F)c1`, 124 °C; in that of `N#CC1=C(N)Oc2c(Br)cc(Br)cc2C1C(C#N)C#N` (stereo not given), 300 °C. In the case of `COc1ccc(C(CCC(=O)O)C(C)(C)C(=O)O)cc1` (stereo not given) it was 121 °C. `CC(=O)c1ccc(O)c(C)c1O` had a melting point of 154 °C.

Take `CCc1cccc2c3c([nH]c12)C(CC)(CC(=O)O)OCC3` (stereo not given): the melting point was determined as 146 °C. Compound `OC1(c2ccccc2)c2ccccc2-c2ccccc21` showed a melting point of 107 to 110 °C.

`Brc1ccc2nsnc2c1` showed a melting point of 59 to 60 °C. The value for `CCOC(=O)c1cn2ccccc2n1` was 80 to 83 °C. In the case of `NC(=S)c1cccc(I)c1` it was 120 to 124 °C; in that of `CC(C)(C)C(Br)Br`, 14 °C; in that of `CC12C=C(C(=O)Oc3ccccc3)C(CC1)C2(C)C` (stereo not given), 64 °C. The value for `CCOC(=O)c1cc(-c2cccs2)on1` was 48 to 51 °C. On to `CCN(CC)CCNC(=O)c1cc(S(C)(=O)=O)ccc1OC`, for which the melting point amounted to 124 °C. The value for `CCCC(=O)N(CSP(=S)(OC)OC)c1ccccc1Cl` was 42 °C; that for `O=C(O)CSCSCC(=O)O` was 125 to 128 °C; that for `C/C(CCc1oc2ccc([N+](=O)[O-])cc2c1-c1ccc(C)o1)=N/O` was 160 to 161 °C. `O=c1oc2c3c4c(cc2c2c1CCC2)CCCN4CCC3` showed a melting point of 149 °C.

Consider `Oc1c(F)cc(Br)cc1Br`, for which the melting point worked out at 32 °C.
